Measurements as given in the NIST ThermoML archive (doi:10.1016/j.jct.2012.12.001).

Assay: heat capacity at constant pressure per volume; xn = mol fraction of the nth substance listed
Conditions: 101 kPa, Liquid, DSC, x2 = 0.713

CCCCCCCCCCCCCCCCCC [octadecane] + N#Cc1ccccc1
Conditions	heat capacity [J/K/m3]
303.58 K	1893500
303.61 K	1895600
303.64 K	1894200
303.66 K	1894100
303.69 K	1893500
303.72 K	1893700
303.75 K	1897900
303.78 K	1897000
303.8 K	1893000
303.83 K	1895200
303.86 K	1892600
303.89 K	1900300
303.92 K	1898300
303.94 K	1898400
303.97 K	1899900
304 K	1891800
304.03 K	1897900
304.06 K	1900800
304.09 K	1899300
304.11 K	1897800
304.14 K	1899100
304.17 K	1900600
304.2 K	1897100
304.23 K	1902700
304.25 K	1900600
304.28 K	1893900
304.31 K	1900100
304.34 K	1897300
304.37 K	1899500
304.39 K	1898900
304.42 K	1904200
304.45 K	1900400
304.48 K	1895000
304.51 K	1898500
304.54 K	1903400
304.56 K	1902200
304.59 K	1903900
304.62 K	1901200
304.65 K	1901800
304.68 K	1903500
304.7 K	1904200
304.73 K	1899600
304.76 K	1899700
304.79 K	1900400
304.82 K	1904800
304.84 K	1903700
304.87 K	1904600
304.9 K	1904600
304.93 K	1903200
304.96 K	1902600
304.98 K	1900600
305.01 K	1902200
305.04 K	1902200
305.07 K	1903000
305.1 K	1907100
305.12 K	1903100
305.15 K	1908100
305.18 K	1904700
305.21 K	1904200
305.24 K	1905700
305.27 K	1907500
305.29 K	1908300
305.32 K	1908600
305.35 K	1908400
305.38 K	1906900
305.41 K	1907700
305.44 K	1908100
305.46 K	1909400
305.49 K	1908500
305.52 K	1909000
305.55 K	1908400
305.57 K	1909200
305.6 K	1906500
305.63 K	1908200
305.66 K	1908500
305.69 K	1909100
305.72 K	1909500
305.74 K	1911100
305.77 K	1910000
305.8 K	1907500
305.83 K	1908700
305.86 K	1914100
305.88 K	1911500
305.91 K	1910100
305.94 K	1909200
305.97 K	1909700
306 K	1906900
306.02 K	1909600
306.05 K	1913100
306.08 K	1913500
306.11 K	1917400
306.14 K	1917300
306.17 K	1913000
306.19 K	1914700
306.22 K	1914300
306.25 K	1915600
306.28 K	1918100
306.31 K	1915700
306.33 K	1916100
306.36 K	1913300
306.39 K	1910700
306.42 K	1914500
306.45 K	1911200
306.48 K	1914800
306.5 K	1918100
306.53 K	1921200
306.56 K	1920200
306.59 K	1916400
306.62 K	1922000
306.64 K	1923600
306.67 K	1922600
306.7 K	1921800
306.73 K	1922000
306.76 K	1921100
306.78 K	1915500
306.81 K	1915900
306.84 K	1920400
306.87 K	1916900
306.9 K	1923600
306.93 K	1927300
306.95 K	1929700
306.98 K	1927500
307.01 K	1924100
307.04 K	1928000
307.06 K	1932100
307.09 K	1924600
307.12 K	1927400
307.15 K	1929100
307.18 K	1928200
307.21 K	1926400
307.23 K	1925500
307.26 K	1931000
307.29 K	1928800
307.32 K	1935200
307.35 K	1931700
307.37 K	1930400
307.4 K	1932600
